Data: patent US20260199484A1, “PROTAC DEGRADERS OF MLLT1 AND/OR MLLT3” (DARK BLUE THERAPEUTICS LTD, priority 2024, published 2026)

Target: T1, MLLT1 (Homo sapiens, UniProt Q03111)
T1 sequence (Q03111 1-559): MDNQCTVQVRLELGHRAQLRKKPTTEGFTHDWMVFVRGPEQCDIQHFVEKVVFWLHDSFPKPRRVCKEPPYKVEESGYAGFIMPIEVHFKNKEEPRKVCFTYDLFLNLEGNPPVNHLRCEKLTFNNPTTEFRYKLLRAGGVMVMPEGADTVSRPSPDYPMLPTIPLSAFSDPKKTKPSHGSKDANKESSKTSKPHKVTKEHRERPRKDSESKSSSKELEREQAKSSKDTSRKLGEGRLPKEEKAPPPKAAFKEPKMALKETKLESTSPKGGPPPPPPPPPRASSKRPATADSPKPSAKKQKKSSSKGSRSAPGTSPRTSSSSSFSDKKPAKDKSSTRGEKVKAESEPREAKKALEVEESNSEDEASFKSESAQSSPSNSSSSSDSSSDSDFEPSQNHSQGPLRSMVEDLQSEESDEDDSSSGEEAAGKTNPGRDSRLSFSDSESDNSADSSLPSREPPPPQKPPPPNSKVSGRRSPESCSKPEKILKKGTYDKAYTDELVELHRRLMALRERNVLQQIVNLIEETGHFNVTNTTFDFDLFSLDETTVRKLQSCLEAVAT
Assay: MLLT1 degradation assay in MV4-11 cells (JESS, 24 h)
Type: cell-based
Design: endogenous in cells; host or cells: MV4-11 (ATCC CRL-9591)
Conditions: vs DMSO control
Description: MLLT1 degradation efficacy of compounds was tested in an automated chemiluminescent detection system (JESS, Cat #004-650). MV4-11 (#CRL-9591, ATCC) cells were seeded at a density of 1.2 million cells/well in a non-treated 6-well cell culture plate in 2.4 mL of complete medium (IMDM+10% FBS+1× Penicillin-Streptomycin). 10 mM DMSO stocks were prepared, and cells were treated with three concentrations of test compounds viz. 1000, 100 and 10 nM at a final DMSO concentration of 0.1% and incubated for 24 h at 37° C., 5% CO2. Post incubation, cells were centrifuged, washed with HBSS and lysed in 70 μL of RIPA buffer supplemented with Protease inhibitors (sc-24948; Santa Cruz). Subsequently, protein estimation was done using BCA protein assay kit (23225; Pierce). 4 ug protein lysate (4 uL of 1 ug/uL lysate) was loaded into each well of the JESS cartridge (SM-W001; Bio-techne) and the JESS run was performed using 1:900 dilution of anti-human MLLT1 antibody (14893; Cell signaling technology) and 1:1200 dilution of anti-human GAPDH antibody (2118; Cell signaling technology) with anti-rabbit secondary detection module (DM-001; Bio-Techne). Post run, data were analysed using “Compass for SW” software for chemiluminescent detection. The peak area for each band was used for the calculation of MLLT1 degradation with respect to DMSO control. Data is shown as “MLLT1% degradation”. • Category A: A≥75% degradation • Category B: 50%≤B<75% degradation • Category C: 25%≤C<50% degradation • Category D: D<25% degradation

| SMILES | MLLT1% Degradation @ 0.01 μM | MLLT1% Degradation @ 0.1 μM | MLLT1% Degradation @ 1 μM |
| --- | --- | --- | --- |
| Cc1c(C#CCCCCCn2nc(C)c3ccc(C(=O)Nc4cc5[nH]c([C@H]6CCCN6C)cc5cn4)cc32)cccc1C(=O)NC1CCC(=O)NC1=O (stereo partly drawn) [Example 35, 1-(7-(3-((2,6-dioxopiperidin-3-yl)carbamoyl)-2-methylphenyl)hept-6-yn-1-yl)-3-methyl-N-(2-((R)-1-methylpyrrolidin-2-yl)-1H-pyrrolo[3,2-c]pyridin-6-yl)-1H-indazole-6-carboxamide] | C (Category C: 25%≤C<50% degradation) | D (Category D: D<25% degradation) | B (Category B: 50%≤B<75% degradation) |
| Cc1c(OCCCCCCn2nc(C)c3ccc(C(=O)Nc4cc5[nH]c([C@H]6CCCN6C)cc5cn4)cc32)cccc1N1CCC(=O)NC1=O [Example 10, 1-{6-[3-(2,4-dioxo-1,3-diazinan-1-yl)-2-methylphenoxy]hexyl}-3-methyl-N-{2-[(2R)-1-methylpyrrolidin-2-yl]-1H-pyrrolo[3,2-c]pyridin-6-yl}indazole-6-carboxamide] | C (Category C: 25%≤C<50% degradation) | C (Category C: 25%≤C<50% degradation) | C (Category C: 25%≤C<50% degradation) |
| Cc1nn(CCOCCN2CCN(c3cc4c(cc3F)C(=O)N(C3CCC(=O)NC3=O)C4=O)CC2)c2cc(C(=O)Nc3cc4[nH]c([C@H]5CCCN5C)cc4cn3)ccc12 (stereo partly drawn) [Example 24, 1-(2-(2-(4-(2-(2,6-dioxopiperidin-3-yl)-6-fluoro-1,3-dioxoisoindolin-5-yl)piperazin-1-yl)ethoxy)ethyl)-3-methyl-N-(2-((R)-1-methylpyrrolidin-2-yl)-1H-pyrrolo[3,2-c]pyridin-6-yl)-1H-indazole-6-carboxamide] |  | B (Category B: 50%≤B<75% degradation) | A (Category A: A≥75% degradation) |
| Cc1c2ccc(C(=O)Nc3cc4[nH]c([C@H]5CCCN5C)cc4cn3)cc2nn1CCCCCCCCNc1cccc2c1C(=O)N(C1CCC(=O)NC1=O)C2=O (stereo partly drawn) [Example 5, 2-(8-((2-(2,6-dioxopiperidin-3-yl)-1,3-dioxoisoindolin-4-yl)amino)octyl)-3-methyl-N-(2-((R)-1-methylpyrrolidin-2-yl)-1H-pyrrolo[3,2-c]pyridin-6-yl)-2H-indazole-6-carboxamide] | B (Category B: 50%≤B<75% degradation) | B (Category B: 50%≤B<75% degradation) | C (Category C: 25%≤C<50% degradation) |
| Cc1c(OCCCCCCCCn2nc(C)c3ccc(C(=O)Nc4cc5[nH]c([C@H]6CCCN6C)cc5cn4)cc32)cccc1N1CCC(=O)NC1=O [Example 9, 1-{8-[3-(2,4-dioxo-1,3-diazinan-1-yl)-2-methylphenoxy]octyl}-3-methyl-N-{2-[(2R)-1-methylpyrrolidin-2-yl]-1H-pyrrolo[3,2-c]pyridin-6-yl}indazole-6-carboxamide] | D (Category D: D<25% degradation) | C (Category C: 25%≤C<50% degradation) | A (Category A: A≥75% degradation) |

Further lines, results first:

| MLLT1% Degradation @ 0.01 μM | MLLT1% Degradation @ 0.1 μM | MLLT1% Degradation @ 1 μM | SMILES |
| --- | --- | --- | --- |
| C (Category C: 25%≤C<50% degradation) | B (Category B: 50%≤B<75% degradation) | A (Category A: A≥75% degradation) | Cc1nn(CCCCCCCC#Cc2ccnc(C(=O)N[C@H]3CCC(=O)NC3=O)c2)c2cc(C(=O)Nc3cc4[nH]c([C@H]5CCCN5C)cc4cn3)ccc12 [Example 43, 1-(9-(2-(((S)-2,6-dioxopiperidin-3-yl)carbamoyl)pyridin-4-yl)non-8-yn-1-yl)-3-methyl-N-(2-((R)-1-methylpyrrolidin-2-yl)-1H-pyrrolo[3,2-c]pyridin-6-yl)-1H-indazole-6-carboxamide] |
| A (Category A: A≥75% degradation) | A (Category A: A≥75% degradation) | A (Category A: A≥75% degradation) | Cc1nn(CCCCCCCC#Cc2cccc3c2CN(C2CCC(=O)NC2=O)C3=O)c2cc(C(=O)Nc3cc4[nH]c([C@H]5CC6(CC6)CN5C)cc4cn3)ccc12 (stereo in doubt) [Example 56, 1-(9-(2-(2,6-dioxopiperidin-3-yl)-1-oxoisoindolin-4-yl)non-8-yn-1-yl)-3-methyl-N-(2-((rel-R)-5-methyl-5-azaspiro[2.4]heptan-6-yl)-1H-pyrrolo[3,2-c]pyridin-6-yl)-1H-indazole-6-carboxamide] |
| C (Category C: 25%≤C<50% degradation) | B (Category B: 50%≤B<75% degradation) | A (Category A: A≥75% degradation) | Cc1nn(CCCCCCCC#Cc2cc3c(cc2F)C(=O)N(C2CCC(=O)NC2=O)C3)c2cc(C(=O)Nc3cc4[nH]c([C@H]5CCCN5C)cc4cn3)ccc12 (stereo partly drawn) [Example 60, 1-(9-(2-(2,6-dioxopiperidin-3-yl)-6-fluoro-1-oxoisoindolin-5-yl)non-8-yn-1-yl)-3-methyl-N-(2-((R)-1-methylpyrrolidin-2-yl)-1H-pyrrolo[3,2-c]pyridin-6-yl)-1H-indazole-6-carboxamide] |
| B (Category B: 50%≤B<75% degradation) | B (Category B: 50%≤B<75% degradation) | A (Category A: A≥75% degradation) | Cc1nn(CCCCCCCC#Cc2cccc(C3CCC(=O)NC3=O)n2)c2cc(C(=O)Nc3cc4[nH]c([C@H]5CCCN5C)cc4cn3)ccc12 (stereo partly drawn) [Example 62, 1-(9-(6-(2,6-dioxopiperidin-3-yl)pyridin-2-yl)non-8-yn-1-yl)-3-methyl-N-(2-((R)-1-methylpyrrolidin-2-yl)-1H-pyrrolo [3,2-c]pyridin-6-yl)-1H-indazole-6-carboxamide] |
| D (Category D: D<25% degradation) | C (Category C: 25%≤C<50% degradation) | B (Category B: 50%≤B<75% degradation) | Cc1nn(CCCCCCCC#Cc2ccc(C(=O)N[C@H]3CCC(=O)NC3=O)nc2)c2cc(C(=O)Nc3cc4[nH]c([C@H]5CCCN5C)cc4cn3)ccc12 [Example 41, 1-(9-(6-(((S)-2,6-dioxopiperidin-3-yl)carbamoyl)pyridin-3-yl)non-8-yn-1-yl)-3-methyl-N-(2-((R)-1-methylpyrrolidin-2-yl)-1H-pyrrolo[3,2-c]pyridin-6-yl)-1H-indazole-6-carboxamide] |
| A (Category A: A≥75% degradation) | A (Category A: A≥75% degradation) | A (Category A: A≥75% degradation) | Cc1nn(CCOCCCCC#Cc2cccc3c2CN(C2CCC(=O)NC2=O)C3=O)c2cc(C(=O)Nc3cc4[nH]c([C@H]5CCCN5C)cc4cn3)ccc12 (stereo partly drawn) [Example 50, 1-(2-((6-(2-(2,6-dioxopiperidin-3-yl)-1-oxoisoindolin-4-yl)hex-5-yn-1-yl)oxy)ethyl)-3-methyl-N-(2-((R)-1-methylpyrrolidin-2-yl)-1H-pyrrolo[3,2-c]pyridin-6-yl)-1H-indazole-6-carboxamide] |
